{"source": "patent US7790400B2", "about": "“Delta-9-tetrahydrocannabinol detection method” (Concateno UK Limited, priority 2004, dated 2010)", "key": {"[1]": {"tested_on": "gold-labelled mouse monoclonal anti-THC antibody", "assay": "Lateral flow immunochromatography test for cannabis, immobilised BSA-THC conjugate, spiked oral fluid, Cozart Rapiscan reader", "conditions": "lowest concentration in spiked drug-free oral fluid giving a positive signal on the reader"}, "[2]": {"tested_on": "gold-labelled mouse monoclonal anti-THC antibody", "assay": "Lateral flow immunochromatography test for cannabis, immobilised BSA-CAN (5-pentylresorcinol/BSA) conjugate, spiked oral fluid, Cozart Rapiscan reader", "conditions": "for Detectable level by competitive immunoassay: 5-pentylresorcinol conjugate with commercial anti-THC antibody; for Concentration giving positive Cozart Rapiscan Response: immobilised conjugate BSA-CAN, lowest concentration in spiked drug-free oral fluid giving a positive signal on the reader"}, "[3]": {"tested_on": "mouse monoclonal anti-THC antibody", "assay": "Interference of free 5-pentylresorcinol with antibody binding to immobilised 5-pentylresorcinol-macromolecule conjugates", "conditions": "5-pentylresorcinol in free solution"}, "[4]": {"tested_on": "antibodies raised to THC-COOH coupled to a carrier protein via the phenolic group at C1", "conditions": "relative to THC-COOH; commercially available assay; cited from earlier work"}}, "data": [{"compound": "CCCCCc1cc(O)c2c(c1)OC(C)(C)[C@@H]1CCC(C(=O)O)=C[C@@H]21", "note": "[THC—COOH, 11-nor-9-carboxy-delta-9-THC]", "values": [{"measurement": "Concentration giving positive Cozart Rapiscan Response", "setting": "[1]", "value": 10, "unit": "ng/mL"}, {"measurement": "Detectable level by competitive immunoassay", "setting": "[2]", "value": "about 1.0 ng/ml"}, {"measurement": "Concentration giving positive Cozart Rapiscan Response", "setting": "[2]", "value": 1.0, "unit": "ng/mL"}]}, {"compound": "CCCCCc1cc(O)c2c(c1)OC(C)(C)[C@@H]1CCC(CO)=C[C@@H]21", "note": "[THC—OH, 11-hydroxy-delta-9-THC]", "values": [{"measurement": "Concentration giving positive Cozart Rapiscan Response", "setting": "[1]", "value": 200, "unit": "ng/mL"}, {"measurement": "Sensitivity of detection compared with the parent drug THC", "setting": "[2]; 5-pentylresorcinol conjugate and anti-THC antibody combination", "value": "comparable sensitivity to the parent drug"}, {"measurement": "Concentration giving positive Cozart Rapiscan Response", "setting": "[2]", "value": 20, "unit": "ng/mL"}]}, {"compound": "CCCCCc1cc(O)cc(O)c1", "note": "[5-pentylresorcinol]", "values": [{"measurement": "Interference with binding of anti-THC antibody to immobilised conjugate", "setting": "[3]", "value": "does not interfere"}]}, {"compound": "CCCCCc1cc(O)c2c(c1)OC(C)(C)[C@@H]1CCC(C)=C[C@@H]21", "note": "[THC, Delta-9-tetrahydrocannabinol]", "values": [{"measurement": "Cross-reactivity", "setting": "[4]", "value": 5, "unit": "%"}, {"measurement": "Concentration giving positive Cozart Rapiscan Response", "setting": "[1]", "value": 200, "unit": "ng/mL"}, {"measurement": "Detectable level by competitive immunoassay", "setting": "[2]", "value": "≤ 20", "unit": "ng/mL"}, {"measurement": "Concentration giving positive Cozart Rapiscan Response", "setting": "[2]", "value": 20, "unit": "ng/mL"}, {"measurement": "Increase of sensitivity of detection with BSA-CAN versus BSA-THC", "setting": "[2]; lateral flow strips, BSA-CAN compared with BSA-THC", "value": "about 10 fold"}]}]}
